Source: patent US10377717B2, “Farnesoid X receptor agonists and uses thereof” (Metacrine, Inc., priority 2015, dated 2019)

Each compound was assayed against hFXR (Homo sapiens (Human), UniProt Q96RI1) (assay: In Vitro FXR Assay (TK), luciferase reporter in transfected CV-1 cells). Details: TK-ECRE-luc reporter, hFXR/hRXR, 18 hrs, maximum efficacy <25% of Fexaramine control classified as '+'.
Format: cell-based
Method: CV-1 cells were seeded at a density of 2,000,000 cells in a T175 flask with DMEM+10% charcoal double-stripped FBS and incubated at 37° C. in 5% CO2 for 18 h (O/N).
After 18 h of incubation, the medium in the T175 flask was changed with fresh DMEM+10% charcoal super-stripped serum. In a polypropylene tube, 2500 μL OptiMEM (Life Technologies, Cat #31985-062) was combined with expression plasmids for hFXR, hRXR, TK-ECRE-luc and pCMX-YFP. The tube was then briefly vortexed and incubated at room temperature for 5 minutes. Transfection reagent (X-tremeGENE HP from Roche, Cat #06 366 236 001) was added to the OptiMEM/plasmid mixture vortexed and incubated at room temperature for 20 minutes. Following incubation, the transfection reagent/DNA mixture complex was added to cells in the T175 flask and the cells were incubated at 37° C. in 5% CO2 for 18 h (O/N).
Compounds were serially diluted in DMSO and added to transfected CV-1 cells. The cells were then incubated for 18 hrs. The next day cells were lysed and examined for luminescence.

hFXR, sequence (Q96RI1 whole entry): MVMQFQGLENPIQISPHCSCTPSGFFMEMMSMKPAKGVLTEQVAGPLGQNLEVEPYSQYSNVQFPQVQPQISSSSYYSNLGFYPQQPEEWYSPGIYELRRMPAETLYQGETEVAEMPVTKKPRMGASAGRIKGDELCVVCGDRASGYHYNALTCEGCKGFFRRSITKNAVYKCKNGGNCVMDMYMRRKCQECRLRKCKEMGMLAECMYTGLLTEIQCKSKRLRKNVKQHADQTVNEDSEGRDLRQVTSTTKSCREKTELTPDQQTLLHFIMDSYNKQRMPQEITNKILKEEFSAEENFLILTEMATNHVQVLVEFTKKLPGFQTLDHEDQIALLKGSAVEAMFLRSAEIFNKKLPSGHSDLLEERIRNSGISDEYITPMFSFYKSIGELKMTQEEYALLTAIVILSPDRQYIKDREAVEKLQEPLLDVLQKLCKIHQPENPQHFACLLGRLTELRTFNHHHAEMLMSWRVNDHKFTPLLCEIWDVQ
hFXR, sequence (P19793 whole entry partner): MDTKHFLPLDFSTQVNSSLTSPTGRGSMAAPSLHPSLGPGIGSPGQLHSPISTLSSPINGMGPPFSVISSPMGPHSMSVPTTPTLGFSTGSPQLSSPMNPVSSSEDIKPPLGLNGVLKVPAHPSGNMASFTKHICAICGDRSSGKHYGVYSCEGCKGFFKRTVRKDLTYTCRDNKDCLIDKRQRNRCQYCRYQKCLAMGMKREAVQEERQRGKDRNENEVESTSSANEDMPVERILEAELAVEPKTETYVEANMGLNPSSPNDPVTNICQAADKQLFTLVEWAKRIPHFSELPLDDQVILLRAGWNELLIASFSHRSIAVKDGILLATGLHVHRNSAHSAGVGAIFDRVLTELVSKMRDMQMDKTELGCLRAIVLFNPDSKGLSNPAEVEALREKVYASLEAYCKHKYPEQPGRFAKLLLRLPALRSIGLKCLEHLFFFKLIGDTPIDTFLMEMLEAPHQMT

EC50 [nM]	SMILES
≥ 10000	COC(=O)c1cc2cccc(N(Cc3ccc(-c4ccc(N(C)C)cc4)cc3)C(=O)C3CCCCC3)c2[nH]1 [Compound 10, Methyl 7-(N-((4′-(dimethylamino)-[1,1′-biphenyl]-4-yl)methyl)cyclohexanecarboxamido)-1H-indole-2-carboxylate]
≥ 10000	COC(=O)c1cc2c(N(Cc3ccc(-c4ccc(N(C)C)cc4)cc3)C(=O)C3CCCCC3)cccc2[nH]1 [Compound 11, Methyl 4-(N-((4′-(dimethylamino)-[1,1′-biphenyl]-4-yl)methyl)cyclohexanecarboxamido)-1H-indole-2-carboxylate]
1000 to 10000	COC(=O)c1cc2cccc(N(Cc3ccc(-c4ccc(N(C)C)cc4)cc3)C(=O)C3CCCCC3)c2s1 [Compound 12, Methyl 7-(N-((4′-(dimethylamino)-[1,1′-biphenyl]-4-yl)methyl)cyclohexanecarboxamido) benzo[b]thiophene-2-carboxylate]
≤ 1000	COC(=O)c1ccc2c(N(Cc3ccc(-c4ccc(N(C)C)cc4)cc3)C(=O)C3CCCCC3)nccc2c1 [Compound 13, Methyl 1-(N-((4′-(dimethylamino)-[1,1′-biphenyl]-4-yl)methyl)cyclohexanecarboxamido) isoquinoline-6-carboxylate]
1000 to 10000	CCOC(=O)c1cnc2c(N(Cc3ccc(-c4ccc(N(C)C)cc4)cc3)C(=O)C3CCCCC3)cccc2c1 [Compound 14, Ethyl 8-(N-((4′-(dimethylamino)-[1,1′-biphenyl]-4-yl)methyl)cyclohexanecarboxamido) quinoline-3-carboxylate]
≥ 10000	COC(=O)c1ccc2ccc(N(Cc3ccc(-c4ccc(N(C)C)cc4)cc3)C(=O)C3CCCCC3)cc2c1 [Compound 15, Methyl 7-(N-((4′-(dimethylamino)-[1,1′-biphenyl]-4-yl)methyl)cyclohexanecarboxamido)-2-naphthoate]
≥ 10000	COC(=O)c1cc(N(Cc2ccc(-c3ccc(N(C)C)cc3)cc2)C(=O)C2CCCCC2)c2ccccc2c1 [Compound 16, Methyl 4-(N-((4′-(dimethylamino)-[1,1′-biphenyl]-4-yl)methyl)cyclohexanecarboxamido)-2-naphthoate]
≤ 1000	COC(=O)c1ccc2c(N(Cc3ccc(-c4ccc(OC)c(C)c4)cc3)C(=O)C3CCCCC3)nccc2c1 [Compound 20, Methyl 1-(N-((4′-methoxy-3′-methyl-[1,1′-biphenyl]-4-yl)methyl)cyclohexanecarboxamido) isoquinoline-6-carboxylate]
≤ 1000	CCOC(=O)c1ccc2c(N(Cc3ccc(-c4ccc(OC)c(C)c4)cc3)C(=O)C3CCCCC3)nccc2c1 [Compound 21, Ethyl 1-(N-((4′-methoxy-3′-methyl-[1,1′-biphenyl]-4-yl)methyl)cyclohexanecarboxamido) isoquinoline-6-carboxylate]
≤ 1000	COc1ccc(-c2ccc(CN(C(=O)C3CCCCC3)c3nccc4cc(C(=O)OC(C)C)ccc34)cc2)cc1C [Compound 22, Isopropyl 1-(N-((4′-methoxy-3′-methyl-[1,1′-biphenyl]-4-yl)methyl)cyclohexanecarboxamido) isoquinoline-6-carboxylate]
1000 to 10000	CCOC(=O)c1ccc2c(N(Cc3ccc(-c4ccc(OC)c(C)c4)cc3)C(=O)C3CCCCC3)cccc2n1 [Compound 23, Ethyl 5-(N-((4′-methoxy-3′-methyl-[1,1′-biphenyl]-4-yl)methyl)cyclohexanecarboxamido) quinoline-2-carboxylate]
≤ 1000	COC(=O)c1ccc2c(N(Cc3ccc(-c4ccc(OC)c(C)c4)cc3)C(=O)C3CCCCCC3)nccc2c1 [Compound 25, Methyl 1-(N-((4′-methoxy-3′-methyl-[1,1′-biphenyl]-4-yl)methyl)cycloheptanecarboxamido) isoquinoline-6-carboxylate]

Further lines, the compound ahead of its results:

SMILES	EC50 [nM]
COC(=O)/C=C/c1ccnc(N(Cc2ccc(-c3ccc(N(C)C)nc3)cc2)C(=O)C2CCCCC2)c1 [Compound 5, (E)-Methyl 3-(2-(N-(4-(6-(dimethylamino)pyridin-3-yl)benzyl)cyclohexane-carboxamido)pyridin-4-yl)acrylate]	1000 to 10000
COC(=O)c1ccc2c(N(Cc3ccc(-c4ccc(N(C)C)cc4)cc3)C(=O)C(C)(C)C)nccc2c1 [Compound 17, Methyl 1-(N-((4-(dimethylamino)-[1,1′-biphenyl]-4-yl)methyl)pivalamido)isoquinoline-6-carboxylate]	1000 to 10000
COC(=O)/C=C/c1ccnc(N(C[C@H]2CC[C@H](c3ccc(OC)c(C)c3)CC2)C(=O)C2CCCCC2)c1 [Compound 18, (E)-Methyl 3-(2-(N-((trans-4-(4-methoxy-3-methylphenyl)cyclohexyl)methyl)cyclohexanecarboxamido)pyridin-4-yl)acrylate]	≤ 1000
COC(=O)c1ccc2c(N(Cc3ccc(-c4ccc(OC)c(C)c4)cc3)C(=O)CC(C)(C)C)nccc2c1 [Compound 19, Methyl 1-(N-((4′-methoxy-3′-methyl-[1,1′-biphenyl]-4-yl)methyl)-3,3-dimethylbutanamido)isoquinoline-6-carboxylate]	≤ 1000
COC(=O)c1ccc2c(N(Cc3ccc(-c4ccc(OC)c(C#N)c4)cc3)C(=O)CC(C)(C)C)nccc2c1 [Compound 24, Methyl 1-(N-((3′-cyano-4′-methoxy-[1,1′-biphenyl]-4-yl)methyl)-3,3-dimethylbutanamido)isoquinoline-6-carboxylate]	≤ 1000
COC(=O)c1ccc2c(N(Cc3ccc(-c4ccc(OC)c(C)c4)c(C#N)c3)C(=O)CC(C)(C)C)nccc2c1 [Compound 26, Methyl 1-(N-((2-cyano-4′-methoxy-3′-methyl-[1,1′-biphenyl]-4-yl)methyl)-3,3-dimethylbutanamido)isoquinoline-6-carboxylate]	≤ 1000
COC(=O)c1ccc2c(N(Cc3ccc(-c4ccc(OC)c(C)c4)cc3)C(C)=O)nccc2c1 [Compound 27, Methyl 1-(N-((4′-methoxy-3′-methyl-[1,1′-biphenyl]-4-yl)methyl)acetamido)isoquinoline-6-carboxylate]	≥ 10000
COC(=O)c1ccc2c(N(Cc3ccc(-c4ccc(OC)c(C)c4)cc3)C(=O)C(C)C)nccc2c1 [Compound 28, Methyl 1-(N-((4′-methoxy-3′-methyl-[1,1′-biphenyl]-4-yl)methyl)isobutyramido) isoquinoline-6-carboxylate]	≤ 1000
COC(=O)c1ccc2c(N(Cc3ccc(-c4ccc(OC)c(F)c4F)cc3)C(=O)CC(C)(C)C)nccc2c1 [Compound 29, Methyl 1-(N-((2′,3′-difluoro-4′-methoxy-[1,1′-biphenyl]-4-yl)methyl)-3,3-dimethylbutanamido)isoquinoline-6-carboxylate]	≤ 1000
COC(=O)c1ccc2c(N(Cc3ccc(-c4ccc(C)c(C#N)c4)cc3)C(=O)CC(C)(C)C)nccc2c1 [Compound 30, Methyl 1-(N-((3′-cyano-4′-methyl-[1,1′-biphenyl]-4-yl)methyl)-3,3-dimethylbutanamido)isoquinoline-6-carboxylate]	≤ 1000
COC(=O)c1ccc2c(N(Cc3ccc(-c4ccc(C#N)c(Cl)c4)cc3)C(=O)CC(C)(C)C)nccc2c1 [Compound 31, Methyl 1-(N-((3′-chloro-4′-cyano-[1,1′-biphenyl]-4-yl)methyl)-3,3-dimethylbutanamido)isoquinoline-6-carboxylate]	≤ 1000
COC(=O)c1ccc2c(N(Cc3ccc(-c4ccc(Cl)c(C#N)c4)cc3)C(=O)CC(C)(C)C)nccc2c1 [Compound 32, Methyl 1-(N-((4′-chloro-3′-cyano-[1,1′-biphenyl]-4-yl)methyl)-3,3-dimethylbutanamido)isoquinoline-6-carboxylate]	1000 to 10000
COC(=O)c1ccc2c(N(Cc3ccc(-c4ccc(C(F)(F)F)nc4)cc3)C(=O)CC(C)(C)C)nccc2c1 [Compound 33, Methyl 1-(3,3-dimethyl-N-(4-(6-(trifluoromethyl)pyridin-3-yl)benzyl)butanamido)isoquinoline-6-carboxylate]	1000 to 10000
COC(=O)c1ccc2c(N(Cc3ccc(-c4ccc5c(c4)OC(F)(F)O5)cc3)C(=O)CC(C)(C)C)nccc2c1 [Compound 34, Methyl 1-(N-(4-(2,2-difluorobenzo[d][1,3]dioxol-5-yl)benzyl)-3,3-dimethylbutanamido)isoquinoline-6-carboxylate]	≤ 1000
COC(=O)c1ccc2c(N(Cc3ccc(-c4cnc(OC)c(F)c4)cc3)C(=O)CC(C)(C)C)nccc2c1 [Compound 35, Methyl 1-(N-(4-(5-fluoro-6-methoxypyridin-3-yl)benzyl)-3,3-dimethylbutanamido)isoquinoline-6-carboxylate]	≤ 1000
COC(=O)c1ccc2c(N(Cc3ccc(-c4cnc(OC)c(Cl)c4)cc3)C(=O)CC(C)(C)C)nccc2c1 [Compound 36, Methyl 1-(N-(4-(5-chloro-6-methoxypyridin-3-yl)benzyl)-3,3-dimethylbutanamido)isoquinoline-6-carboxylate]	≤ 1000
COC(=O)c1ccc2c(N(Cc3ccc(-c4cnc(OC)c(C)c4)cc3)C(=O)CC(C)(C)C)nccc2c1 [Compound 37, Methyl 1-(N-(4-(6-methoxy-5-methylpyridin-3-yl)benzyl)-3,3-dimethylbutanamido)isoquinoline-6-carboxylate]	≤ 1000
COC(=O)c1ccc2c(N(Cc3ccc(-c4ccc(N(C)C)nc4)cc3)C(=O)CC(C)(C)C)nccc2c1 [Compound 38, Methyl 1-(N-(4-(6-(dimethylamino)pyridin-3-yl)benzyl)-3,3-dimethylbutanamido)isoquinoline-6-carboxylate]	≤ 1000
